Laboratory results: PubChem BioAssay (NCI)
Values joined by “and” are separate entries in the source; they are usually repeats but may differ in a detail not shown here. Identical values can stand only once.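 Tested at 5 concentrations; 48 h exposure; 96-well plates; endpoints linearly interpolated, else capped at highest concentration. Here, GI50 denotes the concentration required for 50% inhibition of growth. At the TGI there is no net growth.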

Key:
Experiment in all cases: NCI tumour cell line growth inhibition, 48 h
[1] = tested on: COLO 205 colon
[2] = tested on: HT29 colon
[3] = tested on: HCT-15 colon
[4] = tested on: BT-549 breast
[5] = tested on: SK-MEL-28 melanoma
[6] = tested on: SK-MEL-5 melanoma
[7] = tested on: T-47D breast
[8] = tested on: RPMI-8226 leukemia
[9] = tested on: MDA-MB-435
[10] = tested on: HOP-62 NSCLC
[11] = tested on: NCI-H522 lung
[12] = tested on: SR leukemia
[13] = tested on: MALME-3M melanoma
[14] = tested on: UO-31 renal
[15] = tested on: MDA-MB-231 breast
[16] = tested on: TK-10 renal
[17] = tested on: HS 578T breast
[18] = tested on: IGROV1 ovarian
[19] = tested on: HCC-2998 colon
[20] = tested on: SW-620 colon
[21] = tested on: PC-3 prostate
[22] = tested on: UACC-62 melanoma
[23] = tested on: A549 NSCLC
[24] = tested on: NCI-H460 lung
[25] = tested on: HL-60(TB) leukemia
[26] = tested on: CAKI-1 renal
[27] = tested on: OVCAR-8 ovarian
[28] = tested on: EKVX NSCLC
[29] = tested on: LOX IMVI melanoma
[30] = tested on: A498 renal
[31] = tested on: SK-OV-3 ovarian
[32] = tested on: SF-268 CNS
[33] = tested on: M14 melanoma
[34] = tested on: RXF 393 renal
[35] = tested on: SNB-75 CNS
[36] = tested on: OVCAR-4 ovarian
[37] = tested on: SNB-19 CNS
[38] = tested on: DU-145 prostate
[39] = tested on: HOP-92 NSCLC
[40] = tested on: NCI/ADR-RES ovarian
[41] = tested on: MOLT-4 leukemia
[42] = tested on: SF-539 CNS
[43] = tested on: UACC-257 melanoma
[44] = tested on: SK-MEL-2 melanoma
[45] = tested on: NCI-H226 lung
[46] = tested on: K-562 leukemia
[47] = tested on: CCRF-CEM leukemia
[48] = tested on: SN12C renal
[49] = tested on: U251 CNS
[50] = tested on: ACHN renal
[51] = tested on: 786-0 renal
[52] = tested on: OVCAR-5 ovarian
[53] = tested on: SF-295 CNS
[54] = tested on: HCT-116 colon
[55] = tested on: OVCAR-3 ovarian
[56] = tested on: NCI-H23 lung
[57] = tested on: MCF7 breast
[58] = tested on: KM12 colon

COc1cc(C(=O)Nc2cc(O)c(C/C=C(\C)CCC=C(C)C)c(O)c2)cc2c1O[C@]1(C)CC[C@@H](O)C(C)(C)[C@H]1C2
GI50 [1]: 386 nM and 678 nM | TGI [1]: 4250 nM and 5320 nM | GI50 [2]: 1420 nM and 955 nM | TGI [2]: 5430 nM and 3790 nM | GI50 [3]: 471 nM and 628 nM | TGI [3]: 3380 nM and 3370 nM | TGI [4]: 5230 nM | GI50 [5]: 178 nM and 629 nM | TGI [5]: 13800 nM | GI50 [6]: 177 nM and 631 nM | TGI [6]: 2100 nM and 3990 nM | GI50 [7]: 401 nM and 690 nM | TGI [7]: 4880 nM | GI50 [8]: 9.11 nM and 19.7 nM | TGI [8]: 80.6 nM and 95.8 nM | GI50 [9]: 325 nM and 1260 nM | TGI [9]: 13000 nM | GI50 [10]: 53.7 nM and 176 nM | TGI [10]: 6970 nM | GI50 [11]: 7000 nM and 1290 nM | TGI [11]: 11600 nM | GI50 [12]: 38.2 nM and 21.9 nM | TGI [12]: 7200 nM and 5930 nM | GI50 [13]: 300 nM and 1240 nM | TGI [13]: 7460 nM | GI50 [14]: 78.6 nM and 237 nM | TGI [14]: 600 nM and 1290 nM | GI50 [15]: 1010 nM and 461 nM | TGI [15]: 5530 nM and 5340 nM | GI50 [16]: 2540 nM | TGI [16]: 28900 nM | GI50 [17]: 14.4 nM | TGI [17]: 14800 nM | GI50 [18]: 3370 nM and 881 nM | TGI [18]: 19500 nM | GI50 [19]: 1490 nM and 2130 nM | TGI [19]: 16400 nM | GI50 [20]: 89.9 nM and 159 nM | TGI [20]: 1840 nM and 15600 nM | GI50 [21]: 30.2 nM and 46.3 nM | TGI [21]: 17800 nM | GI50 [22]: 48.8 nM and 46.3 nM | TGI [22]: 803 nM and 1790 nM | GI50 [23]: 381 nM and 214 nM | TGI [23]: 13900 nM | GI50 [24]: 83 nM and 101 nM | TGI [24]: 13500 nM | GI50 [25]: 7.16 nM and 69.9 nM | GI50 [26]: 39.4 nM | TGI [26]: 11900 nM | GI50 [27]: 4280 nM and 2210 nM | TGI [27]: 31400 nM | GI50 [28]: 1120 nM and 1160 nM | TGI [28]: 14800 nM | GI50 [29]: 62.6 nM and 80.9 nM | TGI [29]: 2700 nM and 1920 nM | GI50 [30]: 62.3 nM and 25.8 nM | TGI [30]: 1720 nM and 889 nM | GI50 [31]: 92.6 nM and 114 nM | TGI [31]: 22700 nM | GI50 [32]: 1100 nM and 741 nM | TGI [32]: 15800 nM | GI50 [33]: 98.4 nM and 81.2 nM | TGI [33]: 4760 nM and 1910 nM | GI50 [34]: 4.19 nM | TGI [34]: 80.9 nM and 170 nM | GI50 [35]: 8.98 nM and < 11.1 nM | TGI [35]: 7560 nM | GI50 [36]: 5300 nM and 3140 nM | TGI [36]: 32000 nM | GI50 [37]: 3280 nM and 1900 nM | TGI [37]: 26400 nM | GI50 [38]: 1880 nM and 331 nM | TGI [38]: 13100 nM | GI50 [39]: 237 nM and 173 nM | TGI [39]: 8130 nM and 4790 nM | GI50 [40]: 9220 nM and 6620 nM | TGI [40]: > 76400 nM | GI50 [41]: 29.8 nM | TGI [41]: 1540 nM | GI50 [42]: 6.23 nM | TGI [42]: 411 nM and 658 nM | GI50 [43]: 4910 nM and 1580 nM | TGI [43]: 23800 nM | GI50 [44]: 83.3 nM and 215 nM | TGI [44]: 3080 nM | GI50 [45]: 3470 nM | TGI [45]: 29000 nM | GI50 [46]: 35.9 nM and 65.9 nM | TGI [46]: 2170 nM and 2600 nM | GI50 [47]: 43.8 nM and 38.4 nM | TGI [47]: > 22700 nM | GI50 [48]: 1950 nM and 2440 nM | TGI [48]: 19900 nM | GI50 [49]: 9.61 nM and < 17.5 nM | TGI [49]: 6150 nM | GI50 [50]: 1220 nM | TGI [50]: 13100 nM | GI50 [51]: 9.47 nM and 16.8 nM | TGI [51]: 6070 nM | GI50 [52]: 2890 nM and 3490 nM | TGI [52]: 21600 nM | GI50 [53]: 3.07 nM and < 12 nM | TGI [53]: 13.5 nM and 51.5 nM | GI50 [54]: 143 nM and 185 nM | TGI [54]: 7110 nM | GI50 [55]: 3170 nM and 1760 nM | TGI [55]: 6120 nM | GI50 [56]: 1610 nM and 2090 nM | TGI [56]: 19700 nM | GI50 [57]: 50.7 nM and 104 nM | TGI [57]: 12300 nM | GI50 [58]: 2390 nM and 1520 nM | TGI [58]: 12800 nM
